This experiment concerns the target T1, CYP17A1 (Homo sapiens, UniProt P05093).
T1 sequence (P05093 1-508): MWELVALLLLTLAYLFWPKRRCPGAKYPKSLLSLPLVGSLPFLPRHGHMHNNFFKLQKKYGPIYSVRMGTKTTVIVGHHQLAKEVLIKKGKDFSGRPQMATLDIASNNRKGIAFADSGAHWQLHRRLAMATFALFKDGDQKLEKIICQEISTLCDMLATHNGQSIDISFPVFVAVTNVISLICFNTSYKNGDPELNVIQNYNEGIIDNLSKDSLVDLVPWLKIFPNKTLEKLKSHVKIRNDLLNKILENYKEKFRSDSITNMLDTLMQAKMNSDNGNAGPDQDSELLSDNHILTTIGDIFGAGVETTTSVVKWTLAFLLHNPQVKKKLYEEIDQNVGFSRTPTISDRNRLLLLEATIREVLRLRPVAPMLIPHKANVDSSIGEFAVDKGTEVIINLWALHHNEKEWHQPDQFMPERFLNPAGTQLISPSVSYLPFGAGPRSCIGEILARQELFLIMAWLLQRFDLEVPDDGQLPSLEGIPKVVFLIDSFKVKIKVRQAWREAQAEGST
The experiment in a line: […]α-hydroxylase activity, conversion of […]-progesterone to […]OH-progesterone, TLC; enzyme source not given. The format is cell-based.

The text below walks through data of paper PMC8961587, “Synthesis and Structure–Activity Relationships of Novel Non-Steroidal CYP17A1 Inhibitors as Potential Prostate Cancer Agents” (Biomolecules, 2022).

Take `c1ccc2c(c1)ncn2-c1ccc(NC2CCCCC2)cc1` [compound 2]: the IC50 is 1200 nM.
Turning to `Cc1cc(Nc2cccnc2)ccc1-n1ccc2ccccc21` [compound 20], the IC50 amounted to 2600 nM.

As a reminder, the IC50 is the midpoint of a concentration-inhibition curve.
